Assay results published in US4504463A, “Process for making a lyophilized product for use in skeletal imaging” (Mallinckrodt, Inc., priority 1982, dated 1985).

Experiment: Skeletal imaging with scintillation camera after intravenous injection
Type: in vivo, adult human
Settings: for results when used instead of AMDP: carrier replaced in Example II kit; for results when used instead of the disodium salt of HMDP: carrier replaced in Example I kit
Method: An imaging agent is prepared using this kit by adding about 5 ml of a pertechnetate-Tc99m physiological saline with an activity of about 75 mCi, from a commercial technetium source. The vial is agitated until the kit components are dissolved. About 1 ml of the agent is slowly injected, over a period of about 30 seconds, into an adult human subject weighing about 75 kg.

Question: Which “results when used instead of AMDP” value does the source give for `NCC(O)(P(=O)(O)O)P(=O)(O)O` [ethane-1-hydroxy-2-amino-1,1-diphosphonic acid] here?
Answer: substantially similar results

Question: For `CN(C)C(P(=O)(O)O)P(=O)(O)O` [methane-N,N-dimethylaminodiphosphonic acid], which “results when used instead of AMDP” value is on record?
Answer: substantially similar results

Question: For `O=P(O)(O)CP(=O)(O)O` [MDP, methanediphosphonic acid], which “results when used instead of the disodium salt of HMDP” value (shortened to “results when used instead … of HMDP”) is on record?
Answer: substantially similar results

Question: Which “results when used instead of gentisic acid” value (stabilizer replaced in Example I kit) does the source give for `OCc1cc(O)ccc1O` [gentisyl alcohol] here?
Answer: substantially similar results

Question: With stannous fluoride as the molecule, how does the “results when used with or instead of stannous chloride” value (in vivo) read?
Answer: substantially similar results

Question: With `O=P(O)(O)C(O)P(=O)(O)O` [HMDP, methanehydroxydiphosphonic acid] as the molecule, how does the “results when used instead … of HMDP” value read?
Answer: substantially similar results

Question: With `NC(O)(P(=O)(O)O)P(=O)(O)O` [methaneaminohydroxydiphosphonic acid] as the molecule, how does the “results when used instead of AMDP” value read?
Answer: substantially similar results

Question: With `CC(O)(P(=O)(O)O)P(=O)(O)O` [EHDP, ethane-1-hydroxy-1,1-diphosphonic acid] as the molecule, how does the “results when used instead … of HMDP” value read?
Answer: substantially similar results

Question: For `CNC(P(=O)(O)O)P(=O)(O)O` [methane-N-methylaminodiphosphonic acid], which “results when used instead of AMDP” value is on record?
Answer: substantially similar results

Question: For `O=S(=O)([O-])[O-].[Sn+2]` [stannous sulfate], which “results when used with or instead of stannous chloride” value (reductant replaced or added in Example II kit) is on record?
Answer: substantially similar results

Question: With `Oc1ccc(O)cc1` [hydroquinone] as the molecule, how does the “results when used instead of gentisic acid” value (in vivo) read?
Answer: substantially similar results
